# Assay results taken from patent US20120121591A1 (priority 2009, published 2012).
# Read-outs that look alike come from different tables or passages of the source.
# How the values were obtained:
# Assay type in all cases: cell-based
# hKv1.3 = hKv1.3 (Homo sapiens, UniProt P22001); test: cell-based; settings: Kv1.3 (IWQ) IC50 (nM, Avg)
# [1] = test system: IL-2 secretion from T cells in human whole blood; settings: read-out: WB (IL-2) IC50 (nM, Avg)
# [2] = test system: IFN-g secretion from T cells in human whole blood
# Chain of hKv1.3 (P22001 whole entry): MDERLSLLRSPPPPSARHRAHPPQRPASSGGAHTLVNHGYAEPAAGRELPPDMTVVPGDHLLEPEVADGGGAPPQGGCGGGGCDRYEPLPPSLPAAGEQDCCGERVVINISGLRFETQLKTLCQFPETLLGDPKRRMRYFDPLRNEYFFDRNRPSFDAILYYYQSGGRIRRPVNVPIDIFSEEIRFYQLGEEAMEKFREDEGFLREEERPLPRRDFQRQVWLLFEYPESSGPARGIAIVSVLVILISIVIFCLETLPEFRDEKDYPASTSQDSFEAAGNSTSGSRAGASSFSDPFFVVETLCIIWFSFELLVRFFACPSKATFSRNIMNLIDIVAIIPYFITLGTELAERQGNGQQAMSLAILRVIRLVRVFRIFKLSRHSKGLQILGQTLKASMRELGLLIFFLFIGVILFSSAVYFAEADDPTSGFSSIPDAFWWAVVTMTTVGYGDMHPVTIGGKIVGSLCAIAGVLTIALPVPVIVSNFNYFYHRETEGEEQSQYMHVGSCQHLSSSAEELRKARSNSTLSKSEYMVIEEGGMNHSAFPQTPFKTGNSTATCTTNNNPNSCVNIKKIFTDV
SMILES,IC50 (hKv1.3),IC50 [1],"IC50 ([2]; read-out: WB (IFNg) IC50 (nM, Avg))","IC50 ([2]; read-out: WB (IFNg) IC5- (nM, Avg))"
"CC[C@H](C)[C@@H]1NC(=O)[C@@H](NC(=O)[C@H](CO)NC(=O)[C@@H](N)CCCNC(=N)N)CSSC[C@@H](C(N)=O)NC(=O)[C@H]([C@@H](C)O)NC(=O)CNC(=O)[C@@H]2CSSC[C@@H]3NC(=O)[C@H](CCCCN)NC(=O)[C@H](Cc4ccccc4)NC(=O)[C@H](C)NC(=O)[C@H]([C@@H](C)O)NC(=O)[C@H](CSSC[C@H](NC(=O)[C@H](Cc4ccccc4)NC(=O)[C@H](CO)NC(=O)[C@H](CC(C)C)NC(=O)[C@H](CCCNC(=N)N)NC(=O)[C@H](Cc4ccc(O)cc4)NC(=O)[C@H](CCCCN)NC(=O)[C@H](CC(N)=O)NC(=O)[C@H](CO)NC(=O)[C@H](Cc4c[nH]cn4)NC(=O)[C@H](CCCCN)NC3=O)C(=O)N[C@@H](CCCNC(=N)N)C(=O)N[C@@H](CCCCN)C(=O)N[C@@H]([C@@H](C)O)C(=O)N2)NC(=O)[C@H](CCCNC(=N)N)NC(=O)[C@H](CO)NC(=O)[C@H](CCCCN)NC(=O)[C@@H]2CCCN2C(=O)[C@H]([C@@H](C)CC)NC(=O)[C@H]([C@@H](C)O)NC(=O)[C@H](CC(=O)O)NC1=O [[Lys16, Asn21]ShK-amide]",0.167 nM,3.24 nM,,
CC[C@H](C)[C@@H]1NC(=O)[C@@H](NC(=O)[C@H](CO)NC(=O)[C@@H](N)CCCNC(=N)N)CSSC[C@@H](C(=O)O)NC(=O)[C@H]([C@@H](C)O)NC(=O)CNC(=O)[C@@H]2CSSC[C@@H]3NC(=O)[C@H](CCC(N)=O)NC(=O)[C@H](Cc4ccccc4)NC(=O)[C@H](C)NC(=O)[C@H]([C@@H](C)O)NC(=O)[C@H](CSSC[C@H](NC(=O)[C@H](Cc4ccccc4)NC(=O)[C@H](CO)NC(=O)[C@H](CC(C)C)NC(=O)[C@H](CCCNC(=N)N)NC(=O)[C@H](Cc4ccc(O)cc4)NC(=O)[C@H](CCCCN)NC(=O)[C@H](CCSC)NC(=O)[C@H](CO)NC(=O)[C@H](Cc4c[nH]cn4)NC(=O)[C@H](CCCCN)NC3=O)C(=O)N[C@@H](CCCNC(=N)N)C(=O)N[C@@H](CCCCN)C(=O)N[C@@H]([C@@H](C)O)C(=O)N2)NC(=O)[C@H](CCCNC(=N)N)NC(=O)[C@H](CO)NC(=O)[C@H](CCCCN)NC(=O)[C@@H]2CCCN2C(=O)[C@H]([C@@H](C)CC)NC(=O)[C@H](CCCCN)NC(=O)[C@H](CC(=O)O)NC1=O [[Lys6]ShK],0.085 nM,,0.21 nM,
CC[C@H](C)[C@@H]1NC(=O)[C@@H](NC(=O)[C@H](CO)NC(=O)[C@@H](N)CCCNC(=N)N)CSSC[C@@H](C(=O)O)NC(=O)[C@H]([C@@H](C)O)NC(=O)CNC(=O)[C@@H]2CSSC[C@@H]3NC(=O)[C@H](CCC(N)=O)NC(=O)[C@H](Cc4ccccc4)NC(=O)[C@H](C)NC(=O)[C@H]([C@@H](C)O)NC(=O)[C@H](CSSC[C@H](NC(=O)[C@H](Cc4ccccc4)NC(=O)[C@H](CO)NC(=O)[C@H](CC(C)C)NC(=O)[C@H](CCCNC(=N)N)NC(=O)[C@H](Cc4ccc(O)cc4)NC(=O)[C@H](CCCCN)NC(=O)[C@H](CCSC)NC(=O)[C@H](CO)NC(=O)[C@H](Cc4c[nH]cn4)NC(=O)[C@H](CCCCN)NC3=O)C(=O)N[C@@H](CCCNC(=N)N)C(=O)N[C@@H](CCCCN)C(=O)N[C@@H]([C@@H](C)O)C(=O)N2)NC(=O)[C@H](CCCNC(=N)N)NC(=O)[C@H](CO)NC(=O)[C@H](CCCCN)NC(=O)[C@H](CCC(=O)O)NC(=O)[C@H]([C@@H](C)CC)NC(=O)[C@H]([C@@H](C)O)NC(=O)[C@H](CC(=O)O)NC1=O [[Glu8]ShK],0.097 nM,,,0.238 nM
